Where two headings read alike, the source gives them in different places. Bounds are passed on as bounds.

Assay [1] deals with T1, E. faecalis gelatinase (Enterococcus faecalis, UniProt Q833V7).
T1 construct: The E. faecalis strain contained gelatinase and supernatants were used directly; made in house; host or cells: Enterococcus faecalis isolate from a chronic venous wound (natural producer); unpurified culture supernatant
The class given is biochemical. The conditions noted are these: 6 mU gelatinase, 1 hour.

The test system of another assay is P. aeruginosa elastase. The conditions noted are these: 1 hour; for Inhibition of LL-37 degradation by P. aeruginosa elastase: 12 mU elastase; for Inhibition of LL-37 degradation by P. aeruginosa elastase by sulphated saccharides: 1 μg LL-37, 12 mU elastase, 15 μl 10 mM Tris-buffer.
Assay [2] deals with T2, S. pyogenes cysteine proteinase (Streptococcus pyogenes, UniProt P0C0J0).
In assay [3] the target is T2, S. pyogenes cysteine proteinase. The source holds these as a separate data set.
Target sequence in this assay (P0C0J0 146-398 limits assumed): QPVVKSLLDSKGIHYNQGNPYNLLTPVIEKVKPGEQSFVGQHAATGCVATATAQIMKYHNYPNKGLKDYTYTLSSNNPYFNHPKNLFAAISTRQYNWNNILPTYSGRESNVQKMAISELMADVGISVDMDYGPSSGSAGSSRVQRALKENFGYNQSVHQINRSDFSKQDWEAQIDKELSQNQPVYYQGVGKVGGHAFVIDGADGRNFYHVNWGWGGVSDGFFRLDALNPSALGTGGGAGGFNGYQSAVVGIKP
For the next assay, the target named is T3, LL-37 (Homo sapiens, UniProt P49913).
T3 sequence (P49913 134-170 limits assumed): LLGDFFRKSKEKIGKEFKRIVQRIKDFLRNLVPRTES
The assay can be described thus: Slot-binding assay: iodinated dermatan sulphate (DS36) binding to LL-37 on nitrocellulose, competition. The following applies: LL-37 0.2-5 μg on nitrocellulose. As to the method:
LL-37 (0.2-5 μg) was applied onto nitrocellulose and incubated with iodinated dermatan sulphate (DS36). Different polysaccharides were added for competition of binding. DS36, DS18, DS13 (dermatan sulphate 36, 18, and 13), CS4 and CS6 (chondroitin sulphate 4 and 6), CS-D (chondroitin sulphate D) and CS-E (chondroitin sulphate E).
LL-37 (0.2-5 μg) was applied onto nitrocellulose and incubated with iodinated dermatan sulphate (DS36). Different cationic substances, as indicated on top of the various panels, were added for competition of binding. (a), p-1-lys; poly-L-lysine, p-1-arg; poly-L-arginine, DEAE; DEAE-dextran, PB; polybrene. (b), CH; chitosan, PEI, polyethyleneimine, PM; protamine, PMX; polymyxin B, PMXnp; polymyxin B nonapeptide.
Radioiodination of DS36 was performed according to previous protocols (F Cheng, K. Yoshida, D. Heinegard, L. Å. Fransson, Glycobiology, 2, 553 (1992)). Slot-binding assays were carried out as follows: α-defensin peptide I (Bachem, Switzerland) was blotted onto nitrocellulose membranes (Hybond, Amersham). Membranes were blocked (PBS, pH 7.4, 0.25% Tween 20, 3% bovine serum albumin) for 1 h and incubated with radiolabelled DS (˜20 μl/ml) for 1 h in the same buffer. Unlabelled polysaccharides were added for competition of binding (2 mg/ml). The membranes were washed (3×10 min) (PBS, pH 7.4, 0.25% Tween 20). Bas 2000 radioimaging system (Fuji) was used for visualization of radioactivity.
LL-37 (0.2-5 μg) was applied onto nitrocellulose and incubated with iodinated dermatan sulphate (DS36). Different polysaccharides were added for competition of binding: DS36, DS18, DS13, CS-4, CS-6, CS-D (chondroitin sulphate D) and CS-E (chondroitin sulphate E). […] Radiolabelled DS was, however, displaced by DS-36, DS18, DS13 and CS-E.
The effects of various cationic molecules on the DS-LL-37 interaction were monitored using slot-blot assays as described in Example 2. DS binding to LL-37 was blocked by poly-L-lysine, poly-L-arginine, DEAE-dextran, polybrene, chitosan and polyethyleneimine.

Assay [4] concerns the target T4, E. faecalis gelatinase (Enterococcus faecalis, UniProt Q833V7).
T4 construct: The E. faecalis strain contained gelatinase and supernatants were used directly; made in house; host or cells: Enterococcus faecalis isolate from a chronic venous wound (natural producer); unpurified culture supernatant
T4 sequence (Q833V7 whole entry, looked up): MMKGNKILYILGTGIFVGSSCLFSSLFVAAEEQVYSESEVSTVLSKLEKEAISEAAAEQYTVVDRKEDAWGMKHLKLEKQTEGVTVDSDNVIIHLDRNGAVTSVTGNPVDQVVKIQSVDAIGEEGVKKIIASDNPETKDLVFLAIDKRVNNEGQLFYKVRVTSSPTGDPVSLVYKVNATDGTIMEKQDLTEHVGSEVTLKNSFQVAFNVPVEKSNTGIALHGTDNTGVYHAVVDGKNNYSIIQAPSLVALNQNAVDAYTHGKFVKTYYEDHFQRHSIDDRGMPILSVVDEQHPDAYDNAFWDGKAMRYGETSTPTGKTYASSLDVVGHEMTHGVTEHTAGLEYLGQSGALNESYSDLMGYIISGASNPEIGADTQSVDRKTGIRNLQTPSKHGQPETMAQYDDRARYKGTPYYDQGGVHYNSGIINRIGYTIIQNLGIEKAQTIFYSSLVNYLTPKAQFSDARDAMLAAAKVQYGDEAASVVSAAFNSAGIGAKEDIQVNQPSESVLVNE
The class given is biochemical. The following applies: 1 μg LL-37, 3 mU, 1 hour and 6 hours.

Assay [5] deals with E. faecalis. The assay can be described thus: Bactericidal assay of LL-37 after incubation with P. aeruginosa elastase. The conditions noted are these: 0.1 μg LL-37, E. faecalis 2×10^6 cfus/ml, 2 h, 37° C. The class given is cell-based, Enterococcus faecalis.
The target in the next assay is T5, α-defensin 1 (Homo sapiens, UniProt P59665).
T5 construct: purchased Bachem, Switzerland
T5 sequence (P59665 65-94 limits assumed): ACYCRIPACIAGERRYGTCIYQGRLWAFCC
The assay can be described thus: Slot-binding assay: radioiodinated DS binding to blotted α-defensin 1, competition by unlabelled polysaccharides. The conditions noted are these: unlabelled polysaccharide 2 mg/ml, ~100-fold excess.

In the next assay the test system is S. pyogenes. Kind of assay: Anti-microbial assay (CFU) with α-defensin 1 with or without GAG chains. The following applies: 2 h, 37° C.
In assay [6] the test system is E. faecalis. The assay is described as above. The conditions noted are these: 2 h, 37° C.
Method: FIG. 1A illustrates the killing of bacteria by α-defensin. 2×10^6 CFU/ml of S. pyogenes (□) E. faecalis (●) and P. aeruginosa (◯) were incubated with α-defensin at the indicated peptide concentrations for 2 h (S. pyogenes and E. faecalis) or 4 h (P. aeruginosa) at 37° C., and CFU were determined.
For anti-microbial assays S. pyogenes, E. faecalis and P. aeruginosa were grown to mid-log phase in TH-medium. Bacteria were washed and diluted in 10 mM Tris-HCl, pH 7.5, containing 5 mM glucose. 50 μl bacteria (2×10^6 cfu/ml) were incubated with α-defensin at concentrations ranging from 0-40 μg/ml with or without the addition of various GAG chains at concentrations of 2-400 μg/ml. Incubations were carried out at 37° C. for 2 h (S. pyogenes and E. faecalis) or 4 h (P. aeruginosa). To quantitate the microbicidal activity serial dilutions of the incubation mixture were plated on TH agar, incubated at 37° C. over night and the number of CFU were determined.
For a further assay, the system named is P. aeruginosa. Described as above. The class given is cell-based, Pseudomonas aeruginosa. The following applies: 4 h, 37° C.

On to `c1cnc2c(c1)ccc1cccnc12` [1,10-phenantroline, reference compound], for which, at E. faecalis gelatinase [1] (inhibitor 2 mM), the “Inhibition of LL-37 degradation by E. faecalis gelatinase” value is “Degradation was abolished”. Moreover, the “Inhibition of LL-37 degradation by P. aeruginosa elastase” value with P. aeruginosa elastase (inhibitor 2 mM) is “Degradation was abolished”.

For `CC(C)C[C@H](NC(=O)[C@H]1O[C@@H]1C(=O)O)C(=O)NCCCCN=C(N)N` [E64], the “Inhibition of LL-37 degradation by S. pyogenes cysteine proteinase” value in [2] is reported as “Degradation was abolished”. Moreover, in [3], the “Effect on degradation of decorin and high molecular weight proteoglycans by S. pyogenes extracellular products” value is given as “completely blocked the effect”; the “Effect on degradation of decorin by S. pyogenes cysteine proteinase” value is “abolished degradation”.

`CNC(=O)[C@H](Cc1c[nH]c2ccccc12)NC(=O)[C@@H](CC(=O)NO)CC(C)C` [GM6001, reference compound]: the “Inhibition of LL-37 degradation by E. faecalis gelatinase” value on E. faecalis gelatinase [1] (inhibitor 100 μM) was “Degradation was abolished”. In addition, the “Inhibition of LL-37 degradation by P. aeruginosa elastase” value with P. aeruginosa elastase (inhibitor 100 μM) is “Degradation was abolished”.

Take `O=S(=O)(O)OC[C@H]1O[C@@](COS(=O)(=O)O)(O[C@H]2O[C@H](COS(=O)(=O)O)[C@@H](OS(=O)(=O)O)[C@H](OS(=O)(=O)O)[C@H]2OS(=O)(=O)O)[C@@H](OS(=O)(=O)O)[C@@H]1OS(=O)(=O)O` [sucroseoctasulphate]: in the assay on P. aeruginosa elastase, the “Inhibition of LL-37 degradation by P. aeruginosa elastase by sulphated saccharides” value was “inhibited the degradation”.

As for `CC(=O)NC1C(O)OC(COS(=O)(=O)O)C(OS(=O)(=O)O)C1OC1OC(C(=O)O)=CC(O)C1OS(=O)(=O)O` [ΔUA(2S)-GalNAc(4,6S)], the “Inhibition of LL-37 degradation by P. aeruginosa elastase by sulphated saccharides” value in the assay on P. aeruginosa elastase is reported as “inhibited the degradation”.

DEAE-dextran: the “Effect of cationic molecules on DS binding to LL-37” value (“Effect of cationic molecules” for short) at LL-37 is recorded as “blocked”.

For “LL-37: cationic antimicrobial peptide LL-37 (SEQ ID NO: 1)”, the “Degradation of LL-37 by S. pyogenes cysteine proteinase” value in assay [2] is recorded as “degradation of LL-37 by bacterial proteinases”. The “Degradation of LL-37 by E. faecalis gelatinase” value in the assay with E. faecalis gelatinase [4] is “degradation of LL-37 by bacterial proteinases”. Further, the “Bactericidal activity of LL-37 after incubation with P. aeruginosa elastase” value with E. faecalis [5] is “inactivated”.

Turning to Polymyxin B [reference compound], the “Effect of cationic molecules” value on LL-37 is “did not block the binding”.

chitosan: the “Effect of cationic molecules” value on LL-37 was “blocked”.

As to dextran, the “Competition of radiolabelled DS binding to α-defensin 1 by unlabelled polysaccharide” value (shortened to “Competition of radiolabelled DS binding”) at α-defensin 1 is listed as “not”.

dextran sulfate: the “Competition of radiolabelled DS binding” value on α-defensin 1 is given as “displaced the radiolabelled DS”.

In the case of heparin [reference compound], at α-defensin 1, the “Competition of radiolabelled DS binding” value was “displaced the radiolabelled DS”.

On to poly-L-arginine, for which, on LL-37, the “Effect of cationic molecules” value is given as “blocked”.

As for poly-L-lysine, on LL-37, the “Effect of cationic molecules” value is “blocked”.

Take polybrene: at LL-37, the “Effect of cationic molecules” value was “blocked”.

As for polyethyleneimine, the “Effect of cationic molecules” value at LL-37 is reported as “blocked”.

Turning to “polymyxin B nonapeptide [reference compound]”, on LL-37, the “Effect of cationic molecules” value is “did not block the binding”.

For the compound protamine [reference compound], the “Effect of cationic molecules” value on LL-37 was “Reduced levels of binding”.

In the case of “α-defensin 1: cationic antimicrobial peptide α-defensin (SEQ ID NO: 2), from Bachem”, the “α-defensin 1 concentration at which bacteria were effectively killed” value in the assay on S. pyogenes, in the assay on E. faecalis [6] and in the assay with P. aeruginosa was no less than 4 µg/mL throughout.

Source of the values: patent publication US7335355B2, “Antimicrobial agent” (Hansa Medical AB, priority 2000, dated 2008).
